# Assay results taken from publication PMC6277767, “Broad and Region-Specific Impacts of the Synthetic Cannabinoid CP 55,940 in Adolescent and Adult Female Mouse Brains” (Frontiers in Molecular Neuroscience, 2018).
# Where two headings read alike, the source gives them in different places.
# Assays:
# CD1 female mice = assay: Visual observation of mice given CP; assay type: in vivo, mouse; settings: PND 35, PND 50 and adult mice; 3 mg/kg i.p.
# Procedure: The Bloomington Institutional Animal Care and Use Committee of Indiana University reviewed and approved the animal procedures. Female mice from the CD1 strain were utilized to match our study examining THC’s effects on the brain lipidome ([Leishman et al., 2018]). Mice were given a single i.p. injection of either 3 mg/kg CP or 1:1:18 cremophor:ethanol:saline vehicle (please refer to the section “3 mg/kg CP Is Relevant for Synthetic Cannabinoid Abuse and Has Stronger Effects on the Female Mouse Brain Lipidome During Adolescence” for a justification of dose and use of female mice). Three different age groups were given injections: PND 35 and PND 50 adolescents, and adult mice (PND 113). At least eight mice in each age group received CP and at least eight received vehicle. Matching the THC study time course ([Leishman et al., 2018]), mice were sacrificed via rapid decapitation 2 h after injection. Brains were immediately removed and flash-frozen in liquid nitrogen, and then stored at -80°C until dissections were performed. Brains were dissected on an ice-cold dissection plate into the following regions: STR, HIPP, CER, THAL, CTX, HYP, MID, and STEM. These abbreviations for these brain areas will be used exclusively when discussing the results generated by these specific dissections. […]
# [1] = design: method as in earlier work; settings: ref Ferrari et al., 2000; Lopez et al., 2009; Gorzalka et al., 2010; cited from earlier work
# [2] = tested on: CD1 female mouse brain lipidome; assay: Brain-region lipid levels (HPLC/MS/MS lipidomics) 2 h after single i.p. 3 mg/kg CP 55,940 vs vehicle; assay type: in vivo
# Procedure: The Bloomington Institutional Animal Care and Use Committee of Indiana University reviewed and approved the animal procedures. Female mice from the CD1 strain were utilized to match our study examining THC’s effects on the brain lipidome ([Leishman et al., 2018]). Mice were given a single i.p. injection of either 3 mg/kg CP or 1:1:18 cremophor:ethanol:saline vehicle (please refer to the section “3 mg/kg CP Is Relevant for Synthetic Cannabinoid Abuse and Has Stronger Effects on the Female Mouse Brain Lipidome During Adolescence” for a justification of dose and use of female mice). Three different age groups were given injections: PND 35 and PND 50 adolescents, and adult mice (PND 113). At least eight mice in each age group received CP and at least eight received vehicle. Matching the THC study time course ([Leishman et al., 2018]), mice were sacrificed via rapid decapitation 2 h after injection. Brains were immediately removed and flash-frozen in liquid nitrogen, and then stored at -80°C until dissections were performed. Brains were dissected on an ice-cold dissection plate into the following regions: STR, HIPP, CER, THAL, CTX, HYP, MID, and STEM. These abbreviations for these brain areas will be used exclusively when discussing the results generated by these specific dissections. Each dissected area was immediately placed in liquid nitrogen and then stored at -80°C until used for lipid extraction.
# Tissue extracts were performed as previously described ([Bradshaw et al., 2006]; [Stuart et al., 2013]; [Raboune et al., 2014]; [Leishman et al., 2016a],[b], [2017], [2018]). First, samples were shock frozen in liquid nitrogen, weighed, and transferred to a centrifuge tube. The mass of the largest sample was multiplied by 50 to determine how many milliliters of HPLC-grade methanol (Fisher, Fair Lawn, NJ, United States) to add. Then, samples were spiked with 500 pmol deuterium-labeled NAGly (d8NAGly; Cayman Chemical, Ann Arbor, MI, United States). Samples were placed on ice in darkness for 2 h then individually homogenized and centrifuged at 19,000 × g for 20 min at 20°C. Supernatants were diluted with HPLC water (purified in house) to make a solution of 75% water, 25% supernatant. Lipids were partially purified on C18 solid phase extraction columns (Agilent, Palo Alto, CA, United States). A series of four elutions with 1.5 mL of 60%, 75%, 85%, and 100% methanol were collected ([Stuart et al., 2013]; [Leishman et al., 2016a],[b], [2018]).
# As previously described ([Bradshaw et al., 2006]; [Tan et al., 2006]; [Smoum et al., 2010]; [Stuart et al., 2013]; [Tortoriello et al., 2013]; [Raboune et al., 2014]; [Leishman et al., 2016a],[b], [2017], [2018]), samples were analyzed using an Applied Biosystems API 3000 triple quadrupole mass spectrometer with electrospray ionization (Foster City, CA, United States). Using an Agilent XDB-C18 reversed phase analytical column and optimized mobile phase gradients, 20 μL from each elution were chromatographed. Two Shimadzu 10ADvp pumps (Columbia, MD, United States) provided the pressure for gradient elution. Mobile phase A: 20% methanol, 80% water (v/v) and 1 mM ammonium acetate (Sigma, St. Louis, MO, United States). Mobile phase B: 100% methanol, 1 mM ammonium acetate. Every method run began with 0% mobile phase B, reached 100% mobile phase B flowing at 0.2 mL/min, and gradually returned to 0% mobile phase B.
# This screening library will be referred to as the lipidome when discussing data from this study. HPLC/MS/MS data were analyzed using Analyst software (Applied Biosystems) ([Bradshaw et al., 2006]; [Tan et al., 2006]; [Stuart et al., 2013]; [Tortoriello et al., 2013]; [Raboune et al., 2014]; [Leishman et al., 2016a],[b], [2017], [2018]). Chromatograms (Supplementary Figure 3) were generated by determining the retention time of analytes from the analytical column with a [M-1] or [M+1] parent peak and a fragmentation peak corresponding to the programmed values. […]
# mice = settings: cited from earlier work; for catalepsy: single 0.3 mg/kg injection, ref Kow et al., 2014
structure (smiles),measurement,setting,value
"CCCCCCC(C)(C)c1ccc([C@@H]2C[C@H](O)CC[C@H]2CCCO)c(O)c1 [CP 55,940]",locomotor activity (visual observation),CD1 female mice,profoundly reduced locomotor activity
same,mortality,CD1 female mice,no mortality
same,doses attenuating social motivation,[1],over 0.4 mg/kg
same,"PGF2α level, Mean","[2]; adult cortex, 3mg/kg CP 55,940",2.77E-10
same,"PGF2α level, Mean","[2]; adult female mice, brainstem, 3mg/kg CP 55,940",1.69E-10
same,"PGF2α level, Mean","[2]; adult hypothalamus, 3 mg/kg CP 55,940",2.18E-10
same,"PGF2α level, Mean","[2]; adult midbrain, 3mg/kg CP 55,940",2.91E-10
same,"PGF2α level, Mean","[2]; brainstem, PND 50, 3 mg/kg CP 55,940",1.26E-10
same,"PGF2α level, Mean","[2]; cerebellum, WT adult female mice, 3mg/kg CP 55,940",2.22E-10
same,"PGF2α level, Mean","[2]; cerebellum, PND35 WT female mice, 3mg/kg CP 55,940",3.05E-10
same,"PGF2α level, Mean","[2]; cortex, PND 50 female mice, 3mg/kg CP 55,940",1.71E-10
same,"PGF2α level, Mean","[2]; cortex, PND 35 adolescent female mice, 3 mg/kg CP 55,940",3.11E-10
same,"PGF2α level, Mean","[2]; hippocampus, adult, 3 mg/kg CP 55,940",3.25E-10
same,"PGF2α level, Mean","[2]; hippocampus, PND 35 WT female mice, 3mg/kg CP 55,940",9.18E-10
same,"PGF2α level, Mean","[2]; hypothalamus, PND 50 female mice, 3mg/kg CP 55,940",1.35E-10
same,"PGF2α level, Mean","[2]; midbrain, PND 50 female mice, 3mg/kg CP 55,940",1.57E-10
same,"PGF2α level, Mean","[2]; striatum, adult, 3 mg/kg CP 55,940",2.43E-10
same,"PGF2α level, Mean","[2]; thalamus, WT adult female mice, 3mg/kg CP 55,940",2.22E-10
same,"PGF2α level, Mean","[2]; thalamus, PND 35 adolescent female mice, 3 mg/kg CP 55,940",5.11E-10
same,catalepsy,mice; C57 mice,produced catalepsy
same,catalepsy,mice; CB1 KO mice,not
same,ED50 for catalepsy,"mice; ref Little et al., 1988, Compton et al., 1992",0.4 mg/kg
